Assay results published in patent US20260210976A1, “METHOD TO DETECT AND TREAT PERIPHERAL NEUROPATHY” (Ohio State Innovation Foundation, priority 2022, published 2026).

Columns and labels:
[1] = system: PSD95 and PGP9.5 protein expression in scWAT; assay: Western blot of scWAT after daily intra-adipose CL316 243; assay type: in vivo; conditions: daily intra-adipose administration for 7 days
[2] = system: scWAT collagen; assay: Picrosirius red staining and collagen birefringence quantification of scWAT; assay type: in vivo, mouse
Text: Intact scWAT and pgWAT depots were excised from BL6 and HET3 mice, fixed in 10% buffered formalin overnight at room temperature and embedded in paraffin. Paraffin embedded tissues were sectioned 7 μm thick. Tissue sections were deparaffinized with HistoChoice Clearing Agent (Sigma-Aldrich Cat #H2779) and hydrated in decreasing concentrations of EtOH (100%, 95% 70%, 30%, 0%). Tissues were stained in picrosirius red stain (Electron Microscopy Sciences Cat #26357) for 1 hr, washed in two changes of acidified water (5 seconds each), dehydrated in three changes of 100% EtOH, cleared in histo-grade Xylenes for 5 minutes and cover slipped using Permount mounting media (Electron Microscopy Sciences Cat #17986-01). Five representative images per tissue were captured using both brightfield and circularly polarized light to gauge collagen distribution. Total collagen was measured by first quantifying the area comprised by picrosirius red staining in the field of view using brightfield microscopy. This was then divided by the area comprised exclusively of polarized collagen fibers. […] To differentiate the relative contribution of collagen fiber thicknesses, methods were adapted from (Rich & Whittaker, 2005) for use in Fiji (Schindelin et al., 2012). Hue values used for this analysis were as follows: green (52-128), yellow (39-51), orange (10-38), and red (0-9, 230-255). Saturation was not accounted for, and brightness was thresholded at 35-255 to prevent noise from being included in pixel counts. See FIG. 11 for a schematic of this method.

[3] = system: diabetic NONcNZO10/LtJ mice; conditions: 14 ppm diet-fed (Reifsnyder, Doty, & Harrison, 2014); cited from earlier work
[4] = system: scWAT; assay: Hematoxylin staining of scWAT sections; assay type: in vivo, mouse
Text: Intact inguinal scWAT (ing-scWAT), axillary scWAT (ax-scWAT), and perigonadal WAT (pgWAT) depots were excised from BL6 and HET3 mice, fixed in 10% buffered formalin overnight at room temperature and embedded in paraffin. Paraffin embedded tissues were sectioned 7 μm thick. Tissue sections were deparaffinized with HistoChoice Clearing Agent and hydrated in decreasing concentrations of EtOH (100%, 95% 70%, 30%, 0%). Tissues were stained in Mayer's Hematoxylin Solution (Sigma-Aldrich Cat #MHS16) or Mayer's Hemalum Solution (Sigma-Aldrich Cat #109249) and a drop of mounting fluid was applied, and tissues were cover slipped, sealed, and imaged. Three representative images were captured per tissue per animal and cell perimeter and area was measured in Fiji (Schindelin et al., 2012).

[5] = Harrison et al., 2009; cited from earlier work

Row | total increase in collagen between treatment groups ([2]; early-intervention) | collagen deposition versus vehicle group ([2]; early-intervention group) | animals exhibiting severely fibrotic tissue ([2]; early-intervention, females) | animals exhibiting severely fibrotic tissue ([2]; early-intervention, males) | green collagen fibers (birefringence) ([2]; early-intervention, males) | orange collagen fibers (birefringence) ([2]; early-intervention, males) | thick collagen fibers (orange+red), share of thin:thick ratio ([2]; early-intervention, males) | thin collagen fibers, share of thin:thick ratio ([2]; early-intervention, males) | birefringence patterns ([2]; late-intervention) | total collagen ([2]; late-intervention, females) | total collagen ([2]; late-intervention, males, failed to meet statistical significance) | adipose tissue inflammation and fibrosis ([2]; overall statement) | scWAT fibrosis ([2]; treatment started early in life) | SMILES | PGP9.5 protein expression in scWAT [1] | PSD95 expression in scWAT [1] | pancreatic fibrosis [3] | crown-like structures, lipofuscin and immune cell infiltration in scWAT ([4]; early-intervention group (started ~30 weeks)) | crown-like structures, lipofuscin and immune cell infiltration in scWAT ([4]; late-intervention group (started ~72 weeks)) | circulating rapamycin, males versus females [5]
1 |  |  |  |  |  |  |  |  |  |  |  |  |  | C[C@H](Cc1ccc2c(c1)OC(C(=O)[O-])(C(=O)[O-])O2)NC[C@H](O)c1cccc(Cl)c1.[Na+].[Na+] [CL316 243] | upward trend | increased |  |  |  | 
2 | not statistically significant | greater | 3 out of 11 | 3 out of 8 | decreased | increased | 75% | 25% | did not vary | no difference | possible increase | worsened | increased | CO[C@H]1C[C@@H]2CC[C@@H](C)[C@@](O)(O2)C(=O)C(=O)N2CCCC[C@H]2C(=O)O[C@H]([C@H](C)C[C@@H]2CC[C@@H](O)[C@H](OC)C2)CC(=O)[C@H](C)/C=C(\C)[C@@H](O)[C@@H](OC)C(=O)[C@H](C)C[C@H](C)/C=C/C=C/C=C/1C [rapamycin] |  |  | caused pancreatic fibrosis | increased | not observed | equivalent
